Source: US20110105380A1, “Protection of Nano-Scale Particles from Immune Cell Uptake” (THE TRUSTEES OF THE UNIVERSITY OF PENNSYLVANIA, priority 2009, published 2011)

Tested on: THP-1 macrophages
Test: Phagocytosis of IgG-opsonized sheep RBCs by THP-1 macrophages
Assay type: cell-based, human
Experimental: FIG. 5, comprising FIGS. 5A-5D, illustrates human macrophages and monocytes inhibited by human-CD47. FIG. 5A depicts DIC images of THP-1 phagocytes plus CD47-blocked, IgG-opsonized human-RBC, using F(ab′)2 made from monoclonal B6H12. The scale bars are […]. FIG. 5B depicts human peripheral blood monocyte plus CD47-blocked human-RBC following lysis after 45 min of phagocytosis: PKH26 labeled human RBC are depicted in the right hand panel: Lysed RBC labeled with FITC-anti-Fc indicates the cell is not internalized. Human-RBC and Sheep-RBC were phagocytosed by THP-1 cells in FIG. 5C, or human monocytes in FIG. 5D, depicting phagocytosis increases with opsonization. Inset depicts blebbistatin treatment of ShRBC showing decrease in phagocytosis. Phagocytosis is measured as the ratio of internalized RBCs per phagocyte with 200 phagocytes counted in triplicate experiments (±SEM).
FIG. 7 illustrates that myosin increases the efficiency of phagocytosis. Phagocytosis of IgG-opsonized sheep-RBC were measured as a ratio of internalized RBCs per phagocyte with 200 phagocytes counted in triplicate experiments (±SEM). The level of NMM IIA activity is normalized to WT levels in THP-1, with relative levels of knockdown or overexpression quantified by immunofluorescence and Western blot. Results for phagocytosis of the IgG-opsonized sheep-RBC were fit to a line; where the intercept approximates the result for human-RBC. The inset bar graph depicts blebbistatin inhibition of ShRBC phagocytosis by GFP-NMMIIA expressing WT THP-1.
Phagocytosis by the human-derived THP-1 macrophages of IgG-opsonized RBCs was studied by imaging in DIC microscopy. […] RBC membranes were prelabeled with PKH26, and non-engulfed RBCs were labeled with a fluorescein-labeled antibody against the Fc of the IgG-opsonin. […] A small number of human RBCs were engulfed for either type of phagocyte. […]
In light of the myosin differences seen by fluorescence at the various synapses (FIGS. 2-4), the effect of blebbistatin-inhibited myosin on phagocytosis was studied. […]

Ki (engulfment of sheep RBCs by THP-1 macrophages, dose-response (not shown), read-out: Ki-blebb for blebbistatin inhibition of phagocytosis): 5 µM
Compound: Cc1ccc2c(c1)C(=O)C1(O)CCN(c3ccccc3)C1=N2 (stereo not drawn) [blebbistatin]
inhibition of ShRBC phagocytosis by GFP-NMM IIA expressing THP-1 (5 μM blebbistatin): ~50%
engulfment of sheep RBCs by THP-1 macrophages (blebbistatin treatment, FIG. 5C): inhibited by blebbistatin to an extent similar to that of CD47 on human RBCs
